In paper PMC9034004, “Methionine epimerization in cyclic peptides” (RSC Advances, 2021):

Assays:
MDA-MB-231 cells = assay: CytoTox Green cytotoxicity assay, MDA-MB-231; type: cell-based, Human; conditions: 100 μM, 48 h, 8000 cells per well, DMSO 2% as negative control
Experimental: A Forma Series II 3110 Water-Jacketed CO2 Incubator (Thermo Fisher Scientific) containing T-75 cell culture flasks at 37 °C under a humidified atmosphere was used to culture human breast cancer cell lines MDA-MB-231 and Sk-Br-3. 10% fetal bovine serum (FBS) and 1% penicillin under 5% CO2 were used to supplement McCoy's 5A Modified Medium to culture Sk-Br-3 cell line, and 10% FBS and 1% penicillin under 0% CO2 were used to supplement Leibovitz's L-15 Medium to culture MDA-MB-231 cell line. Each cell line's culture medium was changed every 2–3 days.
MDA-MB-231 and Sk-Br-3 cells were plated in 96-well plates at 8000 cells per well (final culture volume – 300 μL) and allowed to grow overnight for attachment before being treated with LO. LO stock solutions were prepared in DMSO at various concentrations of 200 μM; 100 μM; 50 μM, 25 μM, 12.5 μM. CytoTox Green reagent was added to wells during treatments. DMSO treated cells (final concentration at 2%) were used as a negative control. Following the manufacturer's recommended protocols, LOs cytotoxicity was continuously monitored at 24 h intervals for 120 h and calculated using the equation.Cytotoxicity (%) = [OD (experiment) − OD (vehicle control)]/[OD (maximum cell death) − OD (vehicle control)] × 100%

[1] = Alkaline treatment of LOs (base-catalysed Met epimerization, HPLC); type: physicochemical; conditions: LOs 1, 4 and 7 mixture treated with KOH in 70% aqueous ethanol, HPLC at 214 nm and 280 nm
Experimental: HPLC data was collected at a wavelength range of 190–300 nm using Agilent 1200 series HPLC system equipped with an autosampler, quaternary pump, diode array detector and degasser. Chromatographic separations for Marfey's derivatives were conducted on 100 mm × 4.6 mm i.d., reversed-phase Chromolith® Performance RP-18e columns (Merck KGaA, Darmstadt, Germany). The mobile phase consisted of H2O and 0.05 M triethyl phosphate buffer at a flow rate of 2 mL min^−1 (85 : 15 for 3 min, 85 : 15 to 60 : 40 in 18 min, to 10 : 90 in 0.5 min, 10 : 90 for 1 min, to 85 : 15 in 0.5 min, to equilibration for 2 min) with column compartment at 30 °C. Chromolith® High Resolution RP-18e columns 50 mm × 4.6 mm i.d. (Merck KGaA, Darmstadt, Germany) equipped with in-line filters were used for LO analytical characterization. H2O and CH3CN linear HPLC gradient with a flow rate of 2 mL min^−1 (50 : 50 to 20 : 80 for 1.8 min, 20 : 80 to 10 : 90 in 0.1 min, to 50 : 50 in 0.1 min, to equilibration for 1 min), and a column compartment at 32 °C was used.
LO (1 g) was dissolved in 70% aqueous ethanol (2.5 mL) and KOH (0.25 g) was added. The mixture was sonicated for 30 min. A portion of the mixture (∼1 mL) was transferred to a glass vial and extracted with EtOAc (∼3 mL) then settled. The upper EtOAc phase was transferred by pipette to a clean tube and dried under airflow. […]

[1−9-NαC]-linusorb B2 [LO 2]
% cytotoxicity (MDA-MB-231 cells): ~40%

[1−9-NαC], DMet-linusorb B2 [LO 8]
% cytotoxicity (MDA-MB-231 cells): ~100%

[1−9-NαC]-linusorb B3 [LO 1]
new HPLC peak after KOH treatment (in words) [1]: no extra peak was observed
